Literature values as cited in article PMC9102399 (Molecules, 2022).
Each block holds one molecule with its values, some of them ahead of it.

Experiments:
[1] = set-up: method as in earlier work; conditions: SD rats
[2] = beagle dogs
[3] = rats, oral; curcumin 500 mg/kg

- t1/2 of oral CUR II [1]: about 5.5 h
SMILES: COc1cc(C=CC(=O)CC(=O)C=Cc2ccc(O)cc2)ccc1O [CUR II, 4-hydroxycinnamoyl-[4-hydroxy-3-methoxycinnamoyl] methane]

- oral t1/2 of CUR [2]: about 0.85 h
SMILES: COc1cc(C=CC(=O)CC(=O)C=Cc2ccc(O)c(OC)c2)ccc1O [CUR, 1,7-bis [4-hydroxy-3-methoxy-phenyl]-hepta-1,6-diene-3,5-dione]

- time of maximal plasma concentration [3]: 30 min
SMILES: COc1cc(/C=C/C(=O)CC(=O)/C=C/c2ccc(O)c(OC)c2)ccc1O [curcumin]
